Laboratory results taken from PubChem BioAssay AID248 (DTP/NCI, 2004).
“And” between values parts separate entries of the source, which are not always exact repeats. Identical values can stand only once. Toxic doses and inconclusive results are not listed. Rule as the data show it: active = T/C of 150% or more; inactive = T/C below 125%.

Test system: L1210 leukemia ip in BDF1 mice, survival T/C
Assay: NCI In Vivo Anticancer Drug Screen. Data for tumor model L1210 Leukemia (intraperitoneal) in B6D2F1 (BDF1) mice
Settings: endpoint: mean survival time, higher = longer survival
Outline: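 Value reflects the ratio of survival in compound-treated mice to survival in vehicle-treated controls, with both groups carrying the same transplanted tumor.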

[1] = dose: 100.0 mg/kg/injection, schedule: Q04DX003 (ip), vehicle: saline with Tween-80
[2] = dose: 200.0 mg/kg/injection, schedule: Q04DX003 (ip), vehicle: saline with Tween-80
[3] = dose: 400.0 mg/kg/injection, schedule: Q04DX003 (ip), vehicle: saline with Tween-80
[4] = dose: 100.0 mg/kg/injection, schedule: Q01DX001 (ip), vehicle: saline
[5] = dose: 200.0 mg/kg/injection, schedule: Q01DX001 (ip), vehicle: saline
[6] = dose: 400.0 mg/kg/injection, schedule: Q01DX001 (ip), vehicle: saline
[7] = dose: 100.0 mg/kg/injection, schedule: Q01DX001 (ip), vehicle: carboxymethylcellulose (CMC)
[8] = dose: 200.0 mg/kg/injection, schedule: Q01DX001 (ip), vehicle: carboxymethylcellulose (CMC)
[9] = dose: 400.0 mg/kg/injection, schedule: Q01DX001 (ip), vehicle: carboxymethylcellulose (CMC)

Measured: T/C

CC1(C)C(N2CCCC2)N(C(=O)c2ccccc2)SC12c1ccccc1-c1ccccc12 (centres undefined)
inactive: dose: 100.0 mg/kg/injection, schedule: Q04DX002 (ip), vehicle: Klucel (hydroxypropylcellulose) (HPC) 102 % of control | dose: 200.0 mg/kg/injection, schedule: Q04DX002 (ip), vehicle: Klucel (hydroxypropylcellulose) (HPC) 105 % of control | dose: 400.0 mg/kg/injection, schedule: Q04DX002 (ip), vehicle: Klucel (hydroxypropylcellulose) (HPC) 98 % of control

O=C(COc1ccc(Cl)cc1Cl)Nc1cc(Cl)ccc1Cl
inactive: dose: 100.0 mg/kg/injection, schedule: Q04DX002 (ip), vehicle: gum acacia 95 % of control | dose: 200.0 mg/kg/injection, schedule: Q04DX002 (ip), vehicle: gum acacia 95 % of control | dose: 400.0 mg/kg/injection, schedule: Q04DX002 (ip), vehicle: gum acacia 100 % of control

O=C(COc1ccc(Cl)c(Cl)c1)NCc1ccc[n+](Cc2cc(Cl)ccc2S(=O)(=O)F)c1
inactive: [1] 101 % of control | [2] 114 % of control | [3] 88 % of control

COc1cc(NC=O)c2ncccc2c1
inactive: dose: 50.0 mg/kg/injection, schedule: Q04DX003 (ip), vehicle: Klucel (hydroxypropylcellulose) (HPC) 97 % of control | dose: 100.0 mg/kg/injection, schedule: Q04DX003 (ip), vehicle: Klucel (hydroxypropylcellulose) (HPC) 100 % of control | dose: 200.0 mg/kg/injection, schedule: Q04DX003 (ip), vehicle: Klucel (hydroxypropylcellulose) (HPC) 88 % of control

C[N+](C)(C)CCCCCC[Si](C)(C)C
inactive: dose: 5.0 mg/kg/injection, schedule: Q01DX001 (ip), vehicle: saline 110 % of control | dose: 10.0 mg/kg/injection, schedule: Q01DX001 (ip), vehicle: saline 108 % of control | dose: 20.0 mg/kg/injection, schedule: Q01DX001 (ip), vehicle: saline 104 % of control | dose: 40.0 mg/kg/injection, schedule: Q01DX001 (ip), vehicle: saline 108 % of control

CCC(CC)(COC(=O)c1ccc(N)cc1)C1CCCCC1
inactive: dose: 150.0 mg/kg/injection, schedule: Q01DX001 (ip), vehicle: carboxymethylcellulose (CMC) 94 % of control

CS(=O)(=O)OCC(O)C(O)CI (centres undefined)
inactive: dose: 75.0 mg/kg/injection, schedule: Q01DX001 (ip), vehicle: water 104 % of control | dose: 150.0 mg/kg/injection, schedule: Q01DX001 (ip), vehicle: water 111 % of control | dose: 300.0 mg/kg/injection, schedule: Q01DX001 (ip), vehicle: water 116 % of control

COc1ccc(C=NCCN=Cc2ccc(OC)cc2OC)c(OC)c1
inactive: dose: 6.25 mg/kg/injection, schedule: Q01DX009 (ip), vehicle: saline with Tween-80 97 % of control | dose: 6.25 mg/kg/injection, schedule: Q04DX003 (ip), vehicle: saline with Tween-80 98 % of control | dose: 12.5 mg/kg/injection, schedule: Q01DX009 (ip), vehicle: saline with Tween-80 87 % of control | dose: 12.5 mg/kg/injection, schedule: Q04DX003 (ip), vehicle: saline with Tween-80 91 % of control | dose: 25.0 mg/kg/injection, schedule: Q01DX009 (ip), vehicle: saline with Tween-80 87 % of control | dose: 25.0 mg/kg/injection, schedule: Q04DX003 (ip), vehicle: saline with Tween-80 95 % of control

CC1O/C(=N\O)C(C)O1 (centres undefined)
inactive: dose: 100.0 mg/kg/injection, schedule: Q01DX009 (ip), vehicle: carboxymethylcellulose (CMC) 95 % of control and 97 % of control | dose: 100.0 mg/kg/injection, schedule: Q04DX002 (ip), vehicle: carboxymethylcellulose (CMC) 106 % of control and 115 % of control | dose: 100.0 mg/kg/injection, schedule: Q04DX003 (ip), vehicle: carboxymethylcellulose (CMC) 93 % of control | dose: 200.0 mg/kg/injection, schedule: Q01DX009 (ip), vehicle: carboxymethylcellulose (CMC) 93 % of control and 95 % of control | dose: 200.0 mg/kg/injection, schedule: Q04DX002 (ip), vehicle: carboxymethylcellulose (CMC) 97 % of control and 102 % of control | dose: 200.0 mg/kg/injection, schedule: Q04DX003 (ip), vehicle: carboxymethylcellulose (CMC) 101 % of control | dose: 400.0 mg/kg/injection, schedule: Q01DX009 (ip), vehicle: carboxymethylcellulose (CMC) 93 % of control and 105 % of control | dose: 400.0 mg/kg/injection, schedule: Q04DX002 (ip), vehicle: carboxymethylcellulose (CMC) 95 % of control | dose: 400.0 mg/kg/injection, schedule: Q04DX003 (ip), vehicle: carboxymethylcellulose (CMC) 98 % of control

C#CC1(OC(=O)NS(=O)(=O)c2ccc(C)cc2)CCCCC1
inactive: dose: 100.0 mg/kg/injection, schedule: Q01DX001 (ip), vehicle: saline with Tween-80 97 % of control | [1] 103 % of control | dose: 200.0 mg/kg/injection, schedule: Q01DX001 (ip), vehicle: saline with Tween-80 101 % of control | [2] 95 % of control | dose: 400.0 mg/kg/injection, schedule: Q01DX001 (ip), vehicle: saline with Tween-80 103 % of control | [3] 101 % of control

c1ccc2c(c1)C1=NCCN1c1ccccc1-2
inactive: dose: 10.0 mg/kg/injection, schedule: Q01DX009 (ip), vehicle: Klucel (hydroxypropylcellulose) (HPC) 101 % of control | dose: 10.0 mg/kg/injection, schedule: Q04DX003 (ip), vehicle: Klucel (hydroxypropylcellulose) (HPC) 114 % of control | dose: 20.0 mg/kg/injection, schedule: Q01DX009 (ip), vehicle: Klucel (hydroxypropylcellulose) (HPC) 111 % of control | dose: 20.0 mg/kg/injection, schedule: Q04DX003 (ip), vehicle: Klucel (hydroxypropylcellulose) (HPC) 122 % of control | dose: 40.0 mg/kg/injection, schedule: Q01DX009 (ip), vehicle: Klucel (hydroxypropylcellulose) (HPC) 105 % of control | dose: 40.0 mg/kg/injection, schedule: Q04DX003 (ip), vehicle: Klucel (hydroxypropylcellulose) (HPC) 112 % of control

CCC1NC(C(=O)O)CS1 (centres undefined)
inactive: [4] 96 % of control | [5] 100 % of control | [6] 89 % of control

O=[N+]([O-])c1ccc(N/N=C(\Cc2ccccc2)CC(O)(C(F)(F)F)C(F)(F)F)c([N+](=O)[O-])c1
inactive: dose: 25.0 mg/kg/injection, schedule: Q01DX009 (ip), vehicle: gum acacia 92 % of control | dose: 50.0 mg/kg/injection, schedule: Q01DX009 (ip), vehicle: gum acacia 96 % of control | dose: 100.0 mg/kg/injection, schedule: Q01DX001 (ip), vehicle: gum acacia 106 % of control | dose: 100.0 mg/kg/injection, schedule: Q01DX009 (ip), vehicle: gum acacia 98 % of control | dose: 200.0 mg/kg/injection, schedule: Q01DX001 (ip), vehicle: gum acacia 100 % of control | dose: 200.0 mg/kg/injection, schedule: Q01DX009 (ip), vehicle: gum acacia 94 % of control | dose: 400.0 mg/kg/injection, schedule: Q01DX001 (ip), vehicle: gum acacia 98 % of control | dose: 400.0 mg/kg/injection, schedule: Q01DX009 (ip), vehicle: gum acacia 93 % of control

O=C(Nc1ccccc1)c1cccnc1
inactive: [7] 94 % of control | [8] 91 % of control | [9] 96 % of control

COc1cc(OC(C)=O)c2ncccc2c1OC(C)=O
inactive: [4] 94 % of control

OCc1nc2cc(Cl)c(Cl)cc2[nH]1
inactive: [4] 93 % of control | [5] 96 % of control | [6] 102 % of control

CC1CC(CN2c3ccccc3Sc3ccccc32)C(C)N1C (centres undefined)
inactive: dose: 12.5 mg/kg/injection, schedule: Q04DX003 (ip), vehicle: acetone 101 % of control | dose: 25.0 mg/kg/injection, schedule: Q04DX003 (ip), vehicle: acetone 120 % of control

COc1cc(O)c(/C=N\N=C\c2ccco2)c(OC)c1
inactive: dose: 75.0 mg/kg/injection, schedule: Q01DX001 (ip), vehicle: saline 90 % of control | dose: 150.0 mg/kg/injection, schedule: Q01DX001 (ip), vehicle: saline 90 % of control | dose: 300.0 mg/kg/injection, schedule: Q01DX001 (ip), vehicle: saline 86 % of control

CCS(=O)(=O)c1ccc(NC(=O)OCc2ccccc2)cc1
inactive: [7] 94 % of control | [8] 94 % of control | [9] 92 % of control

C=NN=C(NN=C)NN=C
inactive: dose: 15.0 mg/kg/injection, schedule: Q01DX Z (ip), vehicle: methylcellulose (MC) 105 % of control | dose: 30.0 mg/kg/injection, schedule: Q01DX Z (ip), vehicle: methylcellulose (MC) 114 % of control | dose: 60.0 mg/kg/injection, schedule: Q01DX Z (ip), vehicle: methylcellulose (MC) 97 % of control | dose: 120.0 mg/kg/injection, schedule: Q01DX Z (ip), vehicle: methylcellulose (MC) 104 % of control | dose: 120.0 mg/kg/injection, schedule: Q01DX Z (oral), vehicle: methylcellulose (MC) 104 % of control | dose: 480.0 mg/kg/injection, schedule: Q01DX Z (oral), vehicle: methylcellulose (MC) 93 % of control
